This note sets out measurements from ChEMBL document CHEMBL1201862, “PubChem BioAssay data set” (2004).

Among the test systems are HCC 2998; HCT-116; HCT-15; HOP-62; IGROV-1; M14; Malme-3M; NCI-H23; NCI/ADR-RES; OVCAR-4; OVCAR-5; OVCAR-8; RPMI-8226; RXF 393; SK-MEL-2; SK-OV-3; SR; TK-10; UO-31; A498.
Holding throughout (test): NCI tumour cell line growth inhibition, 48 h

Molecules are shown by their SMILES.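 Protocol summary: plate cells (96-well), add compound at 5 concentrations, incubate 48 h, interpolate endpoints linearly. GI50 = concentration required for 50% inhibition of growth.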 Calls of active or inactive are those of the source. No stated cut-off is given here; in the data, active = GI50 up to about 1.1 µM and inactive = higher.

As for `O=C(O)c1nn(-c2ccccc2)nc1-c1nn(-c2ccccc2)nc1C(=O)O`, the GI50 in the experiment with HCC 2998 was > 100 µM (inactive); with HCT-116, > 100 µM (inactive); with HCT-15, more than 100 µM; in the experiment on HOP-62, > 100 µM (inactive); in the experiment with IGROV-1 it was > 100 µM (inactive); in the experiment with M14, > 100 µM (inactive). Further, the GI50 with Malme-3M, in the experiment with NCI-H23, in the experiment with NCI/ADR-RES, with OVCAR-4, with OVCAR-5 and with OVCAR-8 was > 100 µM (inactive) each time. The GI50 in the experiment on RPMI-8226, with RXF 393, with SK-MEL-2, with SK-OV-3, in the experiment on SR and in the experiment on TK-10 was > 100 µM (inactive) each time. Besides, the GI50 in the experiment with UO-31 was > 100 µM (inactive).

Take `COC(=O)c1ccc(S)c(S(=O)(=O)Nc2nc(N)n[nH]2)c1`: the GI50 in the experiment with A498 was > 100 µM (inactive); with HCT-116 it was > 100 µM (inactive); in the experiment with HCT-15 it was more than 100 µM; in the experiment on IGROV-1 it was > 100 µM (inactive); in the experiment on M14, > 100 µM (inactive); in the experiment with Malme-3M, > 100 µM (inactive). Moreover, the GI50 in the experiment on NCI-H23, in the experiment with NCI/ADR-RES, in the experiment on OVCAR-4, in the experiment with OVCAR-5, with OVCAR-8 and in the experiment with RPMI-8226 was > 100 µM (inactive) in each case. Further, the GI50 in the experiment on SK-MEL-2, with SR, in the experiment with TK-10 and in the experiment on UO-31 was > 100 µM (inactive) in each case.

`Cc1ccc(S(=O)(=O)N/N=C2/C3CCC(C3)C2c2ccccc2)cc1` (stereo not given): the GI50 with HCT-116 is > 100 µM (inactive); with HCT-15, more than 100 µM; in the experiment on HOP-62, > 100 µM (inactive); in the experiment with IGROV-1, > 100 µM (inactive); with M14 it was > 100 µM (inactive); in the experiment on Malme-3M, > 100 µM (inactive). Moreover, the GI50 in the experiment on NCI-H23, in the experiment on NCI/ADR-RES, in the experiment with OVCAR-4, in the experiment on OVCAR-5, with OVCAR-8 and in the experiment on RPMI-8226 was > 100 µM (inactive) throughout. Also, the GI50 in the experiment on SK-MEL-2, with SK-OV-3, with SR, with TK-10 and in the experiment on UO-31 was > 100 µM (inactive) each time.

For `C/C(CC1C2CCCC1C2)=N\NC(N)=O` (stereo not given), the GI50 is > 100 µM (inactive) with HCC 2998; > 100 µM (inactive) with HCT-116; more than 100 µM in the experiment with HCT-15; > 100 µM (inactive) in the experiment on HOP-62; > 100 µM (inactive) in the experiment on IGROV-1; > 100 µM (inactive) with M14. Also, the GI50 in the experiment on Malme-3M, in the experiment with NCI-H23, in the experiment on NCI/ADR-RES, in the experiment on OVCAR-4, in the experiment on OVCAR-5 and in the experiment with OVCAR-8 was > 100 µM (inactive) each time. Also, the GI50 with RPMI-8226, with SK-MEL-2, in the experiment on SK-OV-3, in the experiment with SR, in the experiment on TK-10 and with UO-31 was > 100 µM (inactive) throughout.

`CN(C)CCCCN1c2ccccc2Sc2ccc(N=[N+]=[N-])cc21`: the GI50 with A498 was 8.73 µM (inactive); in the experiment on HCC 2998, 1.66 µM (inactive); in the experiment on HCT-116, 4.21 µM (inactive); in the experiment with HCT-15, 3.72 µM; with HOP-62, 11.5 µM (inactive); in the experiment with IGROV-1 it was 3.08 µM (inactive). Further, the GI50 with M14 is 1.67 µM (inactive); in the experiment with Malme-3M it was 1.76 µM (inactive); in the experiment on NCI-H23, 13.3 µM (inactive); with NCI/ADR-RES, 9.98 µM (inactive); in the experiment on OVCAR-4 it was 6.43 µM (inactive); with OVCAR-5, 3.3 µM (inactive). Moreover, the GI50 is 10 µM (inactive) in the experiment with OVCAR-8; 2.29 µM (inactive) in the experiment on RPMI-8226; 4.06 µM (inactive) in the experiment with RXF 393; 3.08 µM (inactive) with SK-MEL-2; 12.9 µM (inactive) in the experiment with SK-OV-3; 12.1 µM (inactive) with TK-10. The GI50 in the experiment with UO-31 was 6.34 µM (inactive).

Consider `CCC(=O)ONC(=O)Cn1ccc([N+](=O)[O-])n1`, for which the GI50 in the experiment with HCC 2998, in the experiment with HCT-116, in the experiment with HOP-62, in the experiment on IGROV-1, with M14 and with Malme-3M was > 100 µM (inactive) each time. Also, the GI50 in the experiment with NCI-H23, in the experiment with NCI/ADR-RES, in the experiment on OVCAR-5, in the experiment with OVCAR-8, with RPMI-8226 and in the experiment with RXF 393 was > 100 µM (inactive) throughout. Moreover, the GI50 with SK-OV-3, in the experiment on SR, with TK-10 and with UO-31 was > 100 µM (inactive) throughout.

Consider `O=C1NC(=O)/C(=C/c2ccc(S(=O)(=O)N/N=C/c3ccccc3)cc2)N1`, for which the GI50 with A498 is 2.75 µM (inactive); with HCC 2998, > 100 µM (inactive); in the experiment on HCT-116, > 100 µM (inactive); in the experiment on HCT-15, more than 100 µM; in the experiment with HOP-62, > 100 µM (inactive); in the experiment with IGROV-1, > 100 µM (inactive). The GI50 in the experiment on M14, in the experiment on Malme-3M, in the experiment with NCI-H23, in the experiment on NCI/ADR-RES, in the experiment on OVCAR-4 and in the experiment on OVCAR-5 was > 100 µM (inactive) in each case. The GI50 with OVCAR-8, in the experiment with RPMI-8226, in the experiment with RXF 393, in the experiment with SK-MEL-2, in the experiment with SK-OV-3 and in the experiment with TK-10 was > 100 µM (inactive) each time. Also, in the experiment with UO-31, the GI50 is > 100 µM (inactive).

For the compound `Cc1cc(-n2c(/C=C/c3ccc(Cl)cc3)nc3cc(Cl)ccc3c2=O)on1`, the GI50 in the experiment on A498 was 2.31 µM (inactive); in the experiment with HCC 2998, > 50 µM (inactive); in the experiment on HCT-116 it was 6.1 µM (inactive); with HCT-15, 28.1 µM; in the experiment with HOP-62, 7.62 µM (inactive); in the experiment on IGROV-1, 29.6 µM (inactive). Further, the GI50 in the experiment with M14 was 12.7 µM (inactive); in the experiment on Malme-3M it was 24 µM (inactive); in the experiment on NCI-H23, 41.4 µM (inactive); in the experiment on NCI/ADR-RES, 14.4 µM (inactive); with OVCAR-4 it was 1.25 µM (inactive); in the experiment with OVCAR-5, > 50 µM (inactive). Also, the GI50 with OVCAR-8 is 10.6 µM (inactive); with SK-OV-3 it was 14.9 µM (inactive); in the experiment with SR, 0.005 µM (active); in the experiment with TK-10, 12.2 µM (inactive); with UO-31 it was 3.61 µM (inactive).

With `O=c1cccc2n1C[C@H]1CNC[C@H]2C1`, the GI50 with A498 is > 100 µM (inactive); in the experiment with HCC 2998, > 100 µM (inactive); in the experiment on HCT-116, > 100 µM (inactive); in the experiment on HCT-15, more than 100 µM; in the experiment with HOP-62, > 100 µM (inactive); in the experiment with M14 it was > 100 µM (inactive). In addition, the GI50 with Malme-3M, with NCI-H23, in the experiment with NCI/ADR-RES, with OVCAR-4, in the experiment with OVCAR-5 and in the experiment on OVCAR-8 was > 100 µM (inactive) throughout. For the same compound, the GI50 is > 100 µM (inactive) in the experiment on RPMI-8226; 47 µM (inactive) in the experiment on RXF 393; > 100 µM (inactive) with SK-MEL-2; > 100 µM (inactive) with SK-OV-3; > 100 µM (inactive) with TK-10; > 100 µM (inactive) with UO-31.

For the compound `CCCCN=C(OC1C=CCCC1)SC` (stereo not given), the GI50 with A498 was 51.8 µM (inactive); in the experiment on HCC 2998, > 100 µM (inactive); in the experiment with HCT-116, > 100 µM (inactive); in the experiment on HCT-15, more than 100 µM; in the experiment on HOP-62, > 100 µM (inactive); in the experiment with IGROV-1, > 100 µM (inactive). Moreover, the GI50 with M14, in the experiment with Malme-3M, in the experiment on NCI-H23, in the experiment with NCI/ADR-RES, in the experiment with OVCAR-4 and in the experiment with OVCAR-5 was > 100 µM (inactive) each time. Moreover, the GI50 in the experiment with OVCAR-8, in the experiment on RPMI-8226, in the experiment with SK-OV-3, in the experiment on SR, in the experiment on TK-10 and with UO-31 was > 100 µM (inactive) each time.

For `COc1ccccc1-c1cc(O)c2c(C)cc(C)nc2n1`, the GI50 in the experiment with A498 is 39.6 µM (inactive); with HCC 2998, > 100 µM (inactive); in the experiment with HCT-15 it was 58.3 µM; in the experiment on HOP-62, > 100 µM (inactive); in the experiment with IGROV-1, 30.5 µM (inactive); in the experiment with M14, 79.8 µM (inactive). In addition, the GI50 in the experiment with Malme-3M is 48 µM (inactive); in the experiment with NCI-H23 it was 56.1 µM (inactive); with NCI/ADR-RES it was 54.7 µM (inactive); in the experiment on OVCAR-4, 56.1 µM (inactive); in the experiment on OVCAR-5, > 100 µM (inactive); in the experiment with OVCAR-8, 90.2 µM (inactive). Further, the GI50 in the experiment on RPMI-8226 was 38.4 µM (inactive); in the experiment with RXF 393, 63.7 µM (inactive); in the experiment with SK-MEL-2, 45.9 µM (inactive); in the experiment on SK-OV-3, > 100 µM (inactive); with TK-10, > 100 µM (inactive); with UO-31 it was 47.1 µM (inactive).
